Reference: ChEMBL document CHEMBL4138203, “Recent developments in anti-Trichomonas research: An update review” (Eur J Med Chem, 2018)
pIC50: −log10 of the molar value. In brackets after ≈: the same amount, converted by molar mass.

Assays:
Trichomonas vaginalis [1] = assay: Anti-Trichomonas activity against Trichomonas vaginalis after 24 hrs by inverted microscopic analysis; assay type: functional
Homo sapiens [2] = species: Homo sapiens; assay: Spermicidal activity in human semen assessed as induction of sperm immobilization; assay type: functional
Trichomonas vaginalis [3] = assay: Anti-Trichomonas activity against metronidazole-resistant Trichomonas vaginalis IR78 ATCC 50138 cultured in TYI-S-33 media assessed as reduction in parasite growth after 30 mins by haemocytometry; assay type: functional, organism-based; conditions: IR78 ATCC 50138, 0.5 h
Trichomonas vaginalis [4] = assay: Anti-Trichomonas activity against metronidazole-resistant Trichomonas vaginalis IR78 ATCC 50138 cultured in PBS/BSA media assessed as reduction in parasite growth after 30 mins by haemocytometry; assay type: functional, organism-based; conditions: IR78 ATCC 50138, 0.5 h
Trichomonas vaginalis [5] = assay: Anti-Trichomonas activity against Trichomonas vaginalis; assay type: functional, organism-based
Trichomonas vaginalis [6] = assay: Anti-Trichomonas activity against metronidazole-resistant Trichomonas vaginalis after 48 hrs by trypan blue exclusion assay; assay type: functional
Trichomonas vaginalis [7] = assay: Anti-Trichomonas activity against Metronidazole-resistant Trichomonas vaginalis 085 ATCC 50143 after 48 hrs by inverted microscopic analysis; assay type: functional; conditions: 085 ATCC 50143, 48 h
Trichomonas vaginalis [8] = assay: Anti-Trichomonas activity against Trichomonas vaginalis JT assessed as reduction in parasite growth after 24 hrs by haemocytometry; assay type: functional, organism-based
Trichomonas vaginalis [9] = assay: Anti-Trichomonas activity against Trichomonas vaginalis JT assessed as reduction in parasite growth after 48 hrs by haemocytometry; assay type: functional, organism-based
Trichomonas vaginalis [10] = assay: Anti-Trichomonas activity against metronidazole-resistant Trichomonas vaginalis JT after 48 hrs by hemocytometry; assay type: functional, organism-based
Trichomonas vaginalis [11] = assay: Anti-Trichomonas activity against metronidazole-susceptible Trichomonas vaginalis ATCC 30236 after 24 hrs by hemocytometry; assay type: functional, organism-based; conditions: ATCC 30236, 24 h
Trichomonas vaginalis [12] = assay: Anti-Trichomonas activity against Trichomonas vaginalis at 100 uM; assay type: functional
Trichomonas vaginalis [13] = assay: Anti-Trichomonas activity against metronidazole-susceptible Trichomonas vaginalis after 48 hrs by trypan blue exclusion assay; assay type: functional
Trichomonas vaginalis [14] = assay: Anti-Trichomonas activity against Trichomonas vaginalis isolate 1 at 250 uM after 48 hrs by microscopic analysis; assay type: functional; conditions: isolate 1, 48 h
Trichomonas vaginalis [15] = assay: Anti-Trichomonas activity against Trichomonas vaginalis isolate 2 at 250 uM after 48 hrs by microscopic analysis; assay type: functional; conditions: isolate 2, 48 h
Trichomonas vaginalis [16] = assay: Anti-Trichomonas activity against Trichomonas vaginalis by quantitative fluorescent method; assay type: functional
Trichomonas vaginalis [17] = assay: Anti-Trichomonas activity against metronidazole-susceptible Trichomonas vaginalis ATCC 30001 assessed as inhibition of parasite growth at 5.5 mM measured at 5 to 60 mins in presence of NH4Cl by trypan blue-based assay; assay type: functional
Trichomonas vaginalis [18] = assay: Anti-Trichomonas activity against metronidazole-resistant Trichomonas vaginalis ATCC 50138 assessed as inhibition of parasite growth at 5.5 mM measured at 5 to 60 mins in presence of NH4Cl by trypan blue-based assay; assay type: functional
Homo sapiens [19] = species: Homo sapiens; assay: Spermicidal activity in human semen assessed as induction of sperm immobilization 0.0015% after 30 secs in presence of sapindus saponin
Trichomonas vaginalis [20] = assay: Anti-Trichomonas activity against Metronidazole-resistant Trichomonas vaginalis isolate 085 ATCC 50143 infected in Swiss Webster mouse at 25 mg/kg, po dosed for 4 days measured at 24 hrs post last dose by microscopic analysis; assay type: functional
Trichomonas vaginalis [21] = assay: Potency index, ratio of Metronidazole MIC to compound MIC for anti-trichomonas activity against Metronidazole-resistant Trichomonas vaginalis 085 ATCC 50143; assay type: functional
[22] = Trichomonas vaginalis, read-out: MIC

For `COC(=O)C1=CC[C@@H](O[C@@H]2O[C@H](CO)[C@@H](O)[C@H](O)[C@H]2O)C(CCC=O)[C@@H]1CC(=O)OCCc1ccc(O)c(O)c1` (some centres undefined), the MIC (Trichomonas vaginalis [1]) was 12.5 µM (≈ 7.11 µg/mL).
`C1CCNCC1.S=C(S)N1CCCC1` [listing 1 of 2 here] gave an MEC (Homo sapiens [2]) of 61.5 mg/L.
With `CCCCCCCCN=c1ccn(CCCCCCCCCCn2ccc(=NCCCCCCCC)cc2)cc1.Cl.Cl` [OCTENIDINE HYDROCHLORIDE] the EC50 (Trichomonas vaginalis [3]) was 0.68 to 2.11 µg/mL and the EC50 (Trichomonas vaginalis [4]) was 0.68 to 2.11 µg/mL.
In the case of `CC1(C)CC[C@]2(C(=O)O)[C@H](O)C[C@]3(C)C(=CC[C@@H]4[C@@]5(C)CC[C@H](O[C@@H]6O[C@H](C(=O)O)[C@@H](O)[C@H](O)[C@H]6O)[C@@](C)(C=O)[C@@H]5CC[C@]43C)[C@@H]2C1`, the MIC (Trichomonas vaginalis [5]) was 0.025%.
`CN(CCC(Oc1ccc(C(F)(F)F)cc1)c1ccccc1)C(=S)SCN1CCCC1` (centres undefined) was tested, and the MIC (Trichomonas vaginalis [6]) was 14 µg/mL and the MEC (Homo sapiens [2]) was 0.05%.
Compound `COC(=O)C1=CO[C@H](O[C@@H]2O[C@H](CO)[C@@H](O)[C@H](O)[C@H]2O)[C@@]2(C)[C@@H](C)OC(=O)C(C)(C)[C@@H](C)OC(=O)C[C@@]12C` has an MIC (Trichomonas vaginalis [1]) of 6.25 µM (≈ 3.42 µg/mL).
Compound `C[C@@H](CCC1(O)OC2CC3C4C[C@H](O[C@H]5O[C@@H](C)[C@H](O)[C@@H](O[C@H]6O[C@@H](C)[C@H](O)[C@@H](O)[C@@H]6O)[C@@H]5O)[C@H]5CC(O)CC[C@]5(C)C4CC[C@]3(C)C2[C@@H]1C)CO[C@@H]1O[C@H](CO)[C@@H](O)[C@H](O)[C@H]1O` (some centres undefined) has an MIC (Trichomonas vaginalis [1]) of 6.25 to 50 µM (≈ 5.66 to 45.3 µg/mL).
`CCCCCCCCCCCCCCCCOP(=O)([O-])OCC[N+](C)(C)C` [MILTEFOSINE] gave an MIC (Trichomonas vaginalis [7]) of 145 µM (≈ 59.1 µg/mL), a pIC50 (Trichomonas vaginalis [8]) of 4.84 and a pIC50 (Trichomonas vaginalis [9]) of 4.70.
`COc1cc(/C=C/C(=O)CC(=O)/C=C/c2ccc(O)c(OC)c2)ccc1O` [CURCUMIN] gave an EC50 (Trichomonas vaginalis [5]; Trichomonas vaginalis) of 100 µg/mL (≈ 271 µM).
With `OC1(c2ccc(-c3ccccc3)cc2)CN2CCC1CC2` (centres undefined) the pIC50 (Trichomonas vaginalis [10]) was 4.34.
In the case of `Cc1ncc([N+](=O)[O-])n1CCO` [METRONIDAZOLE], the MIC (Trichomonas vaginalis [6]) was 1 to 111 µM and the MEC (Homo sapiens [2]) was 1%.
Compound `C1CCNC1.S=C(S)N1CCCC1` [listing 1 of 2 here] has an MEC (Homo sapiens [2]) of 145 µM.
For `COc1c2c(cc(O)c1C(=O)C(C)C)OC(C)(C)C=C2`, the pIC50 (Trichomonas vaginalis [11]) was 3.08.
With `COc1cc2c(c(O)c1C(=O)C(C)C)C=CC(C)(C)O2` the pIC50 (Trichomonas vaginalis [11]) was 2.91.
`CCCCCCCCCCCCCCCCCCCCCCCC` showed an MIC (Trichomonas vaginalis [5]; [22]) of 500 to 1000 µg/mL (≈ 1480 to 2950 µM).
Work on `Oc1cc(O)c2c(c1)O[C@H](c1ccc(O)c(O)c1)[C@H](O[C@]1(c3ccc(O)c(O)c3)Oc3cc(O)cc(O)c3[C@H](O)[C@H]1O)C2` yielded an MIC (Trichomonas vaginalis [5]; [22]) of over 2000 µg/mL.
`C[C@H]1CC[C@]2(NC1)O[C@H]1C[C@H]3[C@@H]4CC[C@H]5C[C@@H](O[C@@H]6O[C@H](CO)[C@H](O[C@@H]7O[C@H](CO)[C@@H](O)[C@H](O[C@@H]8OC[C@@H](O)[C@H](O)[C@H]8O)[C@H]7O[C@@H]7O[C@H](CO)[C@@H](O)[C@H](O)[C@H]7O)[C@H](O)[C@H]6O)CC[C@]5(C)[C@H]4CC[C@]3(C)[C@H]1[C@@H]2C` [TOMATINE] was tested, and the inhibition at 100 µM (Trichomonas vaginalis [12]) was 103%.
`C=C(CO[C@@H]1O[C@H](CO)[C@@H](O)[C@H](O)[C@H]1O)[C@@H]1Cc2c(ccc3c2O[C@H]2COc4cc(OC)c(OC)cc4[C@H]2[C@@H]3O)O1` gave an MIC (Trichomonas vaginalis [1]) of 6.25 µM (≈ 3.59 µg/mL).
Work on `CC(C)C(=O)C1=C(O)C(Cc2c(O)c3c(c(C(=O)C(C)C)c2O)OC(C)(C)C=C3)=C(O)C(C)(C)C1=O` yielded a pIC50 (Trichomonas vaginalis [11]) of 3.91.
`C1CCNCC1.S=C(S)N1CCCC1` [listing 2 of 2 here] gave an MIC (Trichomonas vaginalis [6]) of 7.8 µg/mL and an MIC (Trichomonas vaginalis [13]) of 1.56 µg/mL.
`O=C(/C=C/c1ccc(O)c(O)c1)O[C@H](Cc1ccc(O)c(O)c1)C(=O)O` [ROSMARINIC ACID] was tested, and the MIC (Trichomonas vaginalis [5]; [22]) was 20 µg/mL (≈ 55.5 µM).
`CCCCCCCCCCCC(=O)O[C@H]1C=C2CCN3Cc4cc5c(cc4[C@H]([C@@H]1O)[C@@H]23)OCO5` gave an inhibition at 250 µM (Trichomonas vaginalis [14]) of 100% and an inhibition at 250 µM (Trichomonas vaginalis [15]) of 100%.
Work on `CCCCCCCCCCCCCCCC(=O)O` [PALMITIC ACID] yielded an MIC (Trichomonas vaginalis [5]; [22]) of 500 to 1000 µg/mL (≈ 1950 to 3900 µM).
`CC(C)=CCC/C(C)=C/CO` [GERANIOL] was tested, and the IC50 (Trichomonas vaginalis [5]; Trichomonas vaginalis) was 171 µg/mL (≈ 1110 µM).
`C[C@H]1[C@H](C)CC[C@]2(C(=O)O[C@@H]3O[C@H](CO)[C@@H](O)[C@H](O)[C@H]3O)CC[C@]3(C)C(=CC[C@@H]4[C@@]5(C)CC[C@H](O[C@@H]6O[C@H](CO[C@@H]7O[C@@H](C)[C@H](O)[C@@H](O)[C@H]7O[C@@H]7O[C@H](CO)[C@@H](O)[C@H](O)[C@H]7O)[C@@H](O)[C@@H]6O)C(C)(C)[C@@H]5CC[C@]43C)[C@H]12` gave an MIC (Trichomonas vaginalis [16]) of 0.05%.
In the case of `OC[C@H]1O[C@@H](Oc2ccc(O)cc2)[C@H](O)[C@@H](O)[C@@H]1O` [ARBUTIN], the MIC (Trichomonas vaginalis [5]; [22]) was 500 µg/mL (≈ 1840 µM).
With `N#CCCCN1CCN(C(=S)SSC(=S)N2CCN(CCCC#N)CC2)CC1` the MIC (Trichomonas vaginalis [6]) was 3.12 to 50 µg/mL.
`C1CCNC1.S=C(S)N1CCCC1` [listing 2 of 2 here] showed an MIC (Trichomonas vaginalis [6]) of 13.5 µM and an MIC (Trichomonas vaginalis [13]) of 5.25 µM.
`O=S(=O)(O)CCNCl` gave an inhibition at 5500 µM (Trichomonas vaginalis [17]) of 100% and an inhibition at 5500 µM (Trichomonas vaginalis [18]) of 100%.
`C[C@@H](CCC1(O)OC2CC3C4C[C@H](O[C@H]5O[C@@H](C)[C@H](O)[C@@H](O[C@H]6O[C@@H](C)[C@H](O)[C@@H](O)[C@@H]6O)[C@@H]5O)[C@H]5CC(=O)CC[C@]5(C)C4CC[C@]3(C)C2[C@@H]1C)CO[C@@H]1O[C@H](CO)[C@@H](O)[C@H](O)[C@H]1O` (some centres undefined) showed an MIC (Trichomonas vaginalis [1]) of 6.25 to 50 µM (≈ 5.64 to 45.2 µg/mL).
Work on `O=C(SCC(CN1CCCC1)SSC(CSC(=O)N1CCCCC1)CN1CCCC1)N1CCCCC1` (centres undefined) yielded an Activity (Homo sapiens [19]) of 100%.
`Oc1cc(O)c2c(c1)O[C@H](c1cc(O)c(O)c(O)c1)[C@@H](O)[C@@H]2c1c(O)cc(O)c2c1O[C@H](c1cc(O)c(O)c(O)c1)[C@@H](O)C2` gave an MIC (Trichomonas vaginalis [5]; [22]) of over 2000 µg/mL.
Compound `FC(F)(F)c1ccc(OC(CCN2CCCC2)c2ccccc2)cc1` (centres undefined) has an MIC (Trichomonas vaginalis [6]) of 12.5 to 50 µg/mL and an MEC (Homo sapiens [2]) of 1%.
With `COc1cc2c(c(OC)c1C(=O)C(C)C)C=CC(C)(C)O2` the pIC50 (Trichomonas vaginalis [11]) was 3.64.
`CC1(C)CC[C@]2(C(=O)O)CC[C@]3(C)C(=CC[C@@H]4[C@@]5(C)CC[C@H](O[C@@H]6[C@@H](O)[C@H](O[C@@H]7O[C@H](CO)[C@@H](O)[C@H](O)[C@H]7O)O[C@H](CO)[C@H]6O)C(C)(C)[C@@H]5CC[C@]43C)[C@@H]2C1` showed an MIC (Trichomonas vaginalis [5]) of 0.25%.
Compound `COC(=O)C1=CO[C@@H](O[C@@H]2O[C@H](CO)[C@@H](O)[C@H](O)[C@H]2O)[C@H]2[C@@H]1C=C[C@@]21C=C([C@H](C)OC(=O)/C=C/c2ccc(O)cc2)C(=O)O1` has an MIC (Trichomonas vaginalis [1]) of 12.5 µM (≈ 7.71 µg/mL).
`c1cc(CCCc2ccc(-c3nc4ccccc4[nH]3)cc2)cc(-c2nc3ccccc3[nH]2)c1` was tested, and the MIC (Trichomonas vaginalis [7]) was 26 µM (≈ 11.1 µg/mL), the Activity (Trichomonas vaginalis [20]) was 100% and the Ratio (Trichomonas vaginalis [21]) was 5.5.
